How the values were obtained:
rat remnant kidney model [1] = assay: Rat remnant kidney model of nephropathy (renal mass reduction, RMR); type: in vivo; conditions: for serum creatinine / urine protein: 1 and 2 months of treatment, Compound 1 10 and 30 mg/kg/d, FIG. 1; for serum creatinine / urine protein / percentage of sclerotic glomeruli: combination enalapril + Compound 1 30 mg/kg/d; for number of ED 1 positive cells per field (monocytes/macrophages in renal interstitium): termination, vehicle 63±4; for percentage of sclerotic glomeruli: renal histology at termination, Compound 1 10 or 30 mg/kg/d, enalapril, FIG. 2
Excerpt: The rat remnant kidney model is an animal model of severe progressive renal failure. In this model, a state of severe progressive renal failure is produced by renal mass reduction (RMR) through removal of one kidney and ligation of several branches of the renal artery, resulting in infarction and loss of function of two thirds of the remaining kidney. The procedure creates the conditions of severe hypertension, proteinuria, progressive renal function deterioration, tubulointerstitial damage and glomerulosclerosis (Olson J L, Hostetter T H, Rennke H G, Brenner B M, Venkatachalam M A: “Altered glomerular permselectivity and progressive sclerosis following extreme ablation of renal mass”. Kidney Int 22:112-126, 1982).
Nephropathy is evident as a progressively increasing amount of protein in urine, increases in serum creatinine and increases in arterial pressure. In addition, severe sclerosis of the glomeruli, inflammatory cell infiltration and tubular damage are measurable through histological analysis within 3 months of renal mass reduction (RMR). These measures form the basis for determining efficacy in the model. Urine protein, serum creatinine and arterial pressure are similarly measured in humans to determine impact of treatments on disease progression.
The aim of this study was to evaluate the effects of Compound 1 compared to an ACE inhibitor (enalapril), as well as the combination treatment with Compound 1 and enalapril, on proteinuria and renal disease progression in this model. The effectiveness of these agents has been associated with reductions in proteinuria, slowing of the rate of rise in serum creatinine and reduction in glomerular sclerosis and thus slowing of the progression to end stage renal failure.
(§1) Treatments were started 21 days after RMR, when animals already had overt nephropathy. Treatment groups (n=8/group, except enalapril n=7) included vehicle; Compound 1 at 10 mg/kg/d; Compound 1 at 30 mg/kg/d; enalapril at 15 mg/mL (in drinking water); and enalapril at 15 mg/mL+Compound 1 at 30 mg/kg/d. All compounds were administered in drinking water. An additional sham-operated untreated group was also included. Measurements were made at 21 d after RMR but before treatment, and at one and two months of treatment. […] Since the increased mortality was not dose dependent and was not apparent in the group receiving combination treatment with Compound 1 and enalapril (Table 1), the effect is likely due to chance and the known variability in the severity of renal failure in this model.

rat remnant kidney model [2] = assay: Blood pressure in rat remnant kidney model; type: in vivo; conditions: Compound 1 10 and 30 mg/kg/d; enalapril; combination enalapril + Compound 1 30 mg/kg/d; FIG. 3
Protocol: as §1
Blood pressure reduction can contribute to slowing the progression of renal disease in this animal model as well as in humans.

rat remnant kidney model [3] = assay: Water intake and diuresis in remnant kidney model; type: in vivo; conditions: mean ± S.E.
Protocol: as §1, with “Treatment groups (n=8/group, except enalapril n=7) included vehicle; Compound 1 at 10 mg/kg/d; Compound 1 at 30 mg/kg/d; enalapril at 15 mg/mL (in drinking water); and enalapril at 15 mg/mL+Compound 1 at 30 mg/kg/d.” left out
(§2) Water intake and diuresis was increased in all treatment groups following RMR (Table 2). […] There were no differences in serum electrolytes in any of the treatment groups at the termination of the experiment (Table 2).

rat remnant kidney model [4] = assay: Serum and urine electrolytes in remnant kidney model; type: in vivo; conditions: for urinary Na excretion: both doses of Compound 1 (10, 30 mg/kg/d), reduced in vehicle treated RMR rats; for urinary Na excretion / urinary Cl excretion / urinary K excretion: enalapril alone, combination; for urinary Cl excretion / urinary K excretion: both doses of Compound 1, reduced in RMR rats vs control
Protocol: as §1, §2
Urinary Na excretion was reduced in the vehicle treated RMR rats. […] Urinary K and Cl excretion were reduced in rats with RMR compared to control rats.

[5] = system: streptozotocin-induced diabetic rat; assay: Streptozotocin-induced diabetic rat model of nephropathy; type: in vivo; conditions: for serum albumin concentrations / kidney weight or renal glomerular or mesangial morphology: 30 mg/kg/d; for kidney weight or renal glomerular or mesangial morphology: compared to vehicle treated diabetic rats
Protocol: The streptozotocin-induced diabetic rat is a model of Type I diabetes that develops early renal dysfunction manifested as increased urine albumin excretion. One week after administration of streptozotocin, 65 mg/kg, i.p., rats were assigned to the following treatment groups: no treatment; Compound 1 at 30 mg/kg/d; or enalapril at 30 mg/kg/d. Both compounds were dosed in drinking water for 12 weeks. Mortality among the treatment groups at 12 weeks was 1/10 in the untreated and Compound 1-treated groups and 3/10 in the enalapril-treated group. As a result of the diabetic state, urine volumes were nearly 10 times that of non-diabetic rats. […] The fraction of filtered sodium and potassium excreted was unaffected by either Compound 1 and enalapril.

Type I diabetic rats = assay: Arterial pressure and heart rate in Type I diabetic rats after seven days oral administration; type: in vivo, rat; conditions: oral administration for seven days
Protocol: Oral administration of Compound 1 for seven days in Type I diabetic rats had no effect on mean arterial pressure or heart rate over 48 h in diabetic rats. […] Oral administration of enalapril for seven days had no effect on arterial pressure over 48 h in diabetic rat

db/db mice = type: in vivo; conditions: for urinary albumin excretion (in words): 30 mg/kg/d in drinking water for 16 weeks; for mesangial surface area or percentage of glomerular area occupied by mesangium / urine osmolarity: 30 mg/kg/d; for mesangial surface area or percentage of glomerular area occupied by mesangium: compared to vehicle-treated animals; for urine osmolarity: throughout 16 weeks of dosing
Protocol: Male db/db mice, a genetic model of type 2 diabetes, develop early renal dysfunction manifested as increased urine albumin excretion. At 9 weeks of age diabetes was confirmed by measurement of blood glucose (>300 mg/dL) and animals assigned to one of three treatment groups (n=12/group): untreated, Compound 1, 30 mg/kg/d and enalapril, 30 mg/kg/d. Compounds were dosed in drinking water for 16 weeks. There was no mortality in any of the treatment groups. Body weights for animals were similar at the beginning of the study.

[6] = 1 month of treatment, Compound 1 10 mg/kg/d
[7] = 1 month of treatment, Compound 1 30 mg/kg/d
[8] = 2 month of treatment, Compound 1 10 mg/kg/d
[9] = 2 month of treatment, Compound 1 30 mg/kg/d
[10] = basal (before RMR and treatment), group Compound 1 10 mg/kg/d
[11] = basal (before RMR and treatment), group Compound 1 30 mg/kg/d
[12] = pre-treatment (21 d after RMR), group Compound 1 10 mg/kg/d
[13] = pre-treatment (21 d after RMR), group Compound 1 30 mg/kg/d
[14] = 30 mg/kg/d in drinking water for 12 weeks
[15] = compared to vehicle treated controls
[16] = 1 month of treatment, Enalapril 15 mg/L
[17] = 2 month of treatment, Enalapril 15 mg/L
[18] = basal (before RMR and treatment), group Enalapril 15 mg/L
[19] = pre-treatment (21 d after RMR), group Enalapril 15 mg/L

Structure (SMILES): COc1cc(C(=O)N2CC[C@]3(C=C(C(=O)O)CC3)Cc3ccccc32)ccc1NC(=O)c1cc(F)ccc1Cl [Compound 1]
- serum creatinine (rat remnant kidney model [1]; enalapril 15 mg/mL): reduced urine protein and serum creatinine when administered alone but not to the same extent as enalapril
- urine protein (rat remnant kidney model [1]; enalapril 15 mg/mL): reduced urine protein and serum creatinine when administered alone but not to the same extent as enalapril
- number of ED 1 positive cells per field (monocytes/macrophages in renal interstitium) (rat remnant kidney model [1]; Compound 1 10 mg/kg/d, not statistically significant): 48±4 positive cells per field
- number of ED 1 positive cells per field (monocytes/macrophages in renal interstitium) (rat remnant kidney model [1]; Compound 1 30 mg/kg/d, not statistically significant): 49±10 positive cells per field
- mortality (in words) (rat remnant kidney model [1]; Compound 1 10 and 30 mg/kg/d alone, combination Compound 1 30 mg/kg/d + enalapril, not dose dependent, judged due to chance): apparent excess mortality
- Mortality rate (rat remnant kidney model [1]; rat, in vivo, 10 mg/kg/day, 1 month): 2/8
- Mortality rate (rat remnant kidney model [1]; rat, in vivo, 10 mg/kg/day, 2 months): 4/8
- Mortality rate (rat remnant kidney model [1]; rat, in vivo, 30 mg/kg/day, 1 month): 2/8
- Mortality rate (rat remnant kidney model [1]; rat, in vivo, 30 mg/kg/day, 2 months): 3/8
- percentage of sclerotic glomeruli (rat remnant kidney model [1]): tended to decrease the percentage of sclerotic glomeruli compared with vehicle, but this was not statistically significant
- arterial pressure (rat remnant kidney model [2]): significant reductions in arterial pressure compared to vehicle
- diuresis (rat remnant kidney model [3]; [6]): 47 ± 2 mL/24 h
- water intake (rat remnant kidney model [3]; [6]): 53 ± 9° mL/24 h
- diuresis (rat remnant kidney model [3]; [7]): 41 ± 4 mL/24 h
- water intake (rat remnant kidney model [3]; [7]): 60 ± 7 mL/24 h
- diuresis (rat remnant kidney model [3]; [8]): 43 ± 5 mL/24 h
- water intake (rat remnant kidney model [3]; [8]): 62 ± 6 mL/24 h
- diuresis (rat remnant kidney model [3]; [9]): 49 ± 8 mL/24 h
- water intake (rat remnant kidney model [3]; [9]): 60 ± 16 mL/24 h
- diuresis (rat remnant kidney model [3]; [10]): 19 ± 1 mL/24 h
- water intake (rat remnant kidney model [3]; [10]): 43 ± 5 mL/24 h
- diuresis (rat remnant kidney model [3]; [11]): 19 ± 1 mL/24 h
- water intake (rat remnant kidney model [3]; [11]): 47 ± 3 mL/24 h
- diuresis (rat remnant kidney model [3]; [12]): 44 ± 3 mL/24 h
- water intake (rat remnant kidney model [3]; [12]): 66 ± 5 mL/24 h
- diuresis (rat remnant kidney model [3]; [13]): 55 ± 4 mL/24 h
- water intake (rat remnant kidney model [3]; [13]): 76 ± 6 mL/24 h
- urinary Na excretion (rat remnant kidney model [4]): tended to normalize urinary Na excretion to similar extents
- urinary Cl excretion (rat remnant kidney model [4]): tended to normalize urinary K and Cl excretion
- urinary K excretion (rat remnant kidney model [4]): tended to normalize urinary K and Cl excretion
- fraction of filtered sodium and potassium excreted [5, 14]: unaffected
- urine endpoints: daily volume output, osmolarity, chloride, creatinine, sodium or potassium concentrations, clearances or excretion values [5, 14]: not significantly altered
- urine albumin excretion ([5]; 30 mg/kg/d in drinking water, compared to vehicle treated controls, FIG. 4): significant decrease
- serum albumin concentrations [5, 15]: not statistically significant, serum albumin concentrations increased
- kidney weight or renal glomerular or mesangial morphology [5]: no significant effects
- urine free water clearance ([5]; Compound 1 30 mg/kg/d): trend toward increased urine free water clearance
- serum osmolarity ([5]; Compound 1 30 mg/kg/d, compared to vehicle treated controls): decreased significantly
- (mean) arterial pressure over 48 h (Type I diabetic rats): no effect
- heart rate over 48 h (Type I diabetic rats): no effect
- urinary albumin excretion (in words) (db/db mice; FIG. 5): unaffected
- mesangial surface area or percentage of glomerular area occupied by mesangium (db/db mice): No significant differences
- urine osmolarity (db/db mice): unaffected by treatment

Structure (SMILES): CCOC(=O)[C@H](CCc1ccccc1)N[C@@H](C)C(=O)N1CCC[C@H]1C(=O)O [Enalapril, enalapril, reference compound]
- serum creatinine (rat remnant kidney model [1]; enalapril 15 mg/mL): significantly reduced
- urine protein (rat remnant kidney model [1]; enalapril 15 mg/mL): significantly reduced
- Mortality rate (rat remnant kidney model [1]; 1 month of treatment, enalapril in drinking water, dead/total): 0/7
- Mortality rate (rat remnant kidney model [1]; 2 month of treatment, enalapril in drinking water, dead/total): 1/7
- number of ED 1 positive cells per field (monocytes/macrophages in renal interstitium) (rat remnant kidney model [1]; enalapril 15 mg/mL, statistically significant reduction): 38±6 positive cells per field
- percentage of sclerotic glomeruli (rat remnant kidney model [1]): significant reduction
- arterial pressure (rat remnant kidney model [2]): significant reductions in arterial pressure compared to vehicle
- diuresis (rat remnant kidney model [3]; [16]): 46 ± 4 mL/24 h
- water intake (rat remnant kidney model [3]; [16]): 60 ± 4*° mL/24 h
- diuresis (rat remnant kidney model [3]; [17]): 45 ± 3 mL/24 h
- water intake (rat remnant kidney model [3]; [17]): 59 ± 6 mL/24 h
- diuresis (rat remnant kidney model [3]; [18]): 19 ± 1 mL/24 h
- water intake (rat remnant kidney model [3]; [18]): 44 ± 4 mL/24 h
- diuresis (rat remnant kidney model [3]; [19]): 46 ± 5 mL/24 h
- water intake (rat remnant kidney model [3]; [19]): 66 ± 6 mL/24 h
- urinary Na excretion (rat remnant kidney model [4]): tended to normalize urinary Na excretion to similar extents
- urinary Cl excretion (rat remnant kidney model [4]): tended to normalize urinary K and Cl excretion
- urinary K excretion (rat remnant kidney model [4]): tended to normalize urinary K and Cl excretion
- urine chloride ion (Cl−) (rat remnant kidney model [4]; compared to vehicle group): significantly greater than those in the vehicle group
- fraction of filtered sodium and potassium excreted [5, 14]: unaffected
- urine endpoints: daily volume output, osmolarity, chloride, creatinine, sodium or potassium concentrations, clearances or excretion values [5, 14]: not significantly altered
- Mortality at 12 weeks ([5]; 30 mg/kg/d in drinking water for 12 weeks, dead/total, untreated 1/10): 3/10
- serum albumin concentrations [5, 15]: not statistically significant, serum albumin concentrations increased
- kidney weight or renal glomerular or mesangial morphology [5]: no significant effects
- (mean) arterial pressure over 48 h (Type I diabetic rats): no effect
- urinary albumin excretion (in words) (db/db mice; FIG. 5): tended to reduce urine albumin excretion with significant differences observed at 2 weeks and 16 weeks compared to vehicle controls
- mesangial surface area or percentage of glomerular area occupied by mesangium (db/db mice): No significant differences
- urine osmolarity (db/db mice): unaffected by treatment
- albumin excretion in urine (db/db mice; enalapril 30 mg/kg/d in drinking water, over 16 weeks, FIG. 5): ≤ 500 ug/24 h
